Assay results taken from patent US7582681B2, “Synergistic mixtures of 1,2-alkane diols” (Symrise GmbH & Co. KG, priority 2002, dated 2009).

Legend:
Assay in all cases: Test for adequate preservation (European Pharmacopea), 1,2-diols and 1,2-diol mixtures in O/W emulsion
Assay type in all cases: cell-based
[1] = test system: Staphylococcus aureus ATCC 6538; conditions: 3% diol(s) in O/W emulsion
Procedure: (§1) A test for adequate preservation was carried out in accordance with the European Pharmacopea. The test thus consists of the contamination of the formulation, if possible in its final ratio, with a prescribed inoculum of suitable microorganisms, storage of the inoculated formulation at a specific temperature, taking of samples from the vessel at specific intervals and determination of the number of microorganisms in the samples taken in this way. The preserving properties are adequate if, under the conditions of the test, there is a distinct reduction or optionally no increase in the germ count in the inoculated formulations after the prescribed times at the prescribed temperatures. Experimental details of the test procedure are described in the European Pharmacopea (ISBN 3-7692-2768-9; 2001 supplement to the 3rd Edition, page 421-422, chapter 5.1.3). The initial germ count (CFU/g; “0” value) was in the range of 240,000 to 300,000 in the various test series. For the tests for adequate preservation, (a) potentially synergistically active mixtures taken into account and (b), for comparison purposes, the corresponding unmixed 1,2-diols were incorporated in O/W emulsions. […] The variation in the total concentration of 1,2-diols or 1,2-diol mixtures in the O/W emulsions was compensated for by increasing or reducing the water content, so that otherwise identical formulations always comprised 100 parts by weight in total.

[2] = test system: Escherichia coli ATCC 8739; conditions: 3% diol(s) in O/W emulsion
Procedure: as §1

[3] = test system: Pseudomonas aeruginosa ATCC 9027; conditions: 3% diol(s) in O/W emulsion
Procedure: as §1

[4] = test system: Candida albicans ATCC 10231; conditions: 3% diol(s) in O/W emulsion
Procedure: as §1

[5] = test system: Aspergillus niger ATCC 16404; conditions: for germ count A. niger: 3% diol(s) in O/W emulsion; for reduction in the number of colony forming units (CFU) to the 0 value: Aspergillus niger, dosage of 3%, 28 days
Procedure: A test for adequate preservation was carried out in accordance with the European Pharmacopea. The test thus consists of the contamination of the formulation, if possible in its final ratio, with a prescribed inoculum of suitable microorganisms, storage of the inoculated formulation at a specific temperature, taking of samples from the vessel at specific intervals and determination of the number of microorganisms in the samples taken in this way. The preserving properties are adequate if, under the conditions of the test, there is a distinct reduction or optionally no increase in the germ count in the inoculated formulations after the prescribed times at the prescribed temperatures. Experimental details of the test procedure are described in the European Pharmacopea (ISBN 3-7692-2768-9; 2001 supplement to the 3rd Edition, page 421-422, chapter 5.1.3). The initial germ count (CFU/g; “0” value) was in the range of 240,000 to 300,000 in the various test series. For the tests for adequate preservation, (a) potentially synergistically active mixtures taken into account and (b), for comparison purposes, the corresponding unmixed 1,2-diols were incorporated in O/W emulsions. […] The variation in the total concentration of 1,2-diols or 1,2-diol mixtures in the O/W emulsions was compensated for by increasing or reducing the water content, so that otherwise identical formulations always comprised 100 parts by weight in total. […] The Kull equation enables the pure substances and the active compound mixtures prepared therefrom to be compared in respect of their antimicrobial activity. With this equation the so-called synergy index (SI), which is a measure for a synergistic activity, but also for a possible antagonistic activity, of a mixture having an antimicrobial action, is determined. A synergistic effect is evident if the SI value determined is less than 1. On the other hand, if an SI of precisely 1 is calculated, there is a pure additive effect of two substances having an antimicrobial action. In the case of an SI value greater than 1, on the other hand, there is a (frequently undesired) antagonistic effect.

SMILES | germ count Staph. aureus ([1]; 0′-count (initial germ count)) | germ count Staph. aureus ([1]; 24 h) | germ count Staph. aureus ([1]; 48 h) | germ count Staph. aureus ([1]; 7 d) [CFU/ml] | germ count Staph. aureus ([1]; 14 d) [CFU/ml] | germ count Staph. aureus ([1]; 28 d) [CFU/ml] | germ count E. coli ([2]; 0′-count (initial germ count)) | germ count E. coli ([2]; 24 h) | germ count E. coli ([2]; 48 h) | germ count E. coli ([2]; 4 d) | germ count E. coli ([2]; 7 d) | germ count E. coli ([2]; 14 d) [CFU/ml] | germ count E. coli ([2]; 28 d) [CFU/ml] | germ count Ps. aeruginosa ([3]; 0′-count (initial germ count)) | germ count Ps. aeruginosa ([3]; 24 h) | germ count Ps. aeruginosa ([3]; 7 d) | germ count Ps. aeruginosa ([3]; 14 d) | germ count Ps. aeruginosa ([3]; 28 d) | germ count C. albicans ([4]; 0′-count (initial germ count)) | germ count C. albicans ([4]; 24 h) | other results
CCCC(O)CO (centres unmarked) [PE3, 1,2-pentanediol] | 240,000 CFU/ml | 100,000 CFU/ml | 12,000 CFU/ml | 0 | 0 | 0 | 300,000 CFU/ml | 300,000 CFU/ml | 145,000 CFU/ml | 100,000 CFU/ml | 40,000 CFU/ml | 500 | 0 | 290,000 CFU/ml | 145,000 CFU/ml | 0 CFU/ml | 0 CFU/ml | 0 CFU/ml | 250,000 CFU/ml | 245,000 CFU/ml | germ count Ps. aeruginosa ([3]; 48 h): 12,000 CFU/ml; germ count Ps. aeruginosa ([3]; 4 d): 0 CFU/ml; germ count C. albicans ([4]; 48 h): 73,000 CFU/ml; germ count C. albicans ([4]; 4 d): 28,000 CFU/ml; germ count C. albicans ([4]; 7 d): 23,000 CFU/ml; germ count C. albicans ([4]; 14 d): <100 CFU/ml; germ count C. albicans ([4]; 28 d): 0 CFU/ml; germ count A. niger ([5]; 0′-count (initial germ count)): 260,000 CFU/ml; germ count A. niger ([5]; 24 h): 180,000 CFU/ml; germ count A. niger ([5]; 48 h): 180,000 CFU/ml; germ count A. niger ([5]; 4 d): 180,000 CFU/ml; germ count A. niger ([5]; 7 d): 140,000 CFU/ml; germ count A. niger ([5]; 14 d): 140,000 CFU/ml; germ count A. niger ([5]; 28 d): 100,000 CFU/ml; reduction in the number of colony forming units (CFU) to the 0 value [5]: did not enable a reduction in the number of colony forming units (CFU) to the desired 0 value
CCCCCCCCC(O)CO (centres unmarked) [DE 3, 1,2-decanediol] | 350,000 CFU/ml | 3,200 CFU/ml | 0 CFU/ml | 0 | 0 | 0 | 350,00 CFU/ml | 0 CFU/ml | 0 CFU/ml | 0 CFU/ml | 0 CFU/ml | 0 | 0 | 360,000 CFU/ml | 2,600 CFU/ml | 20.0 mill | 15.0 mill | 11.8 mill | 320,000 CFU/ml | 3,500 CFU/ml | germ count C. albicans ([4]; 48 h): 0 CFU/ml; germ count C. albicans ([4]; 4 d): 0 CFU/ml; germ count C. albicans ([4]; 7 d): 0 CFU/ml; germ count C. albicans ([4]; 14 d): 0 CFU/ml; germ count C. albicans ([4]; 28 d): 0 CFU/ml; germ count A. niger ([5]; 0′-count (initial germ count)): 250,000 CFU/ml; germ count A. niger ([5]; 24 h): 73,000 CFU/ml; germ count A. niger ([5]; 48 h): 160,000 CFU/ml; germ count A. niger ([5]; 4 d): 100,000 CFU/ml; germ count A. niger ([5]; 7 d): 100,000 CFU/ml; germ count A. niger ([5]; 14 d): 73,000 CFU/ml; germ count A. niger ([5]; 28 d): 73,000 CFU/ml; reduction in the number of colony forming units (CFU) to the 0 value [5]: did not enable a reduction in the number of colony forming units (CFU) to the desired 0 value
